# Data as given in paper PMC11790956, “A microscale thermophoresis-based enzymatic RNA methyltransferase assay enables the discovery of DNMT2 inhibitors” (Communications Chemistry, 2025).
# Assays:
# [1] = target: T1, DNMT2 (Homo sapiens, UniProt O14717); test: DNMT2 enzymatic split aptamer MST assay; assay type: biochemical
# T1 construct: made in house
# T1 sequence (O14717 1-391): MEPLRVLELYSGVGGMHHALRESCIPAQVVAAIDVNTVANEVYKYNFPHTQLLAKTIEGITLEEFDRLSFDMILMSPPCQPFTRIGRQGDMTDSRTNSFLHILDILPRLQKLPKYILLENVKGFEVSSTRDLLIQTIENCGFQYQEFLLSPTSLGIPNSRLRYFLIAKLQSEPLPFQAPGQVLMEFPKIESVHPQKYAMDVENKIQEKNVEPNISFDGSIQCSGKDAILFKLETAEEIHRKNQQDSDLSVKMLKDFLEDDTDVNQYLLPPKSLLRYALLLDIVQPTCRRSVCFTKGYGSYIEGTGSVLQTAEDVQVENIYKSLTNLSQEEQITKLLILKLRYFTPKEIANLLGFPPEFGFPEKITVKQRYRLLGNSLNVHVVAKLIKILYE
# Procedure: The enzyme kinetics were characterized by calculating the Michaelis-Menten constant (KM or kcat) and inhibitory constants (IC50 resp. KI).
# The final drug compound concentration was adjusted to 500 µM for the epigenetic drug library (Fig. 5) resp. 100 µM for the covalent compound library (Fig. 6), and the enzymatic reaction was incubated for 30 min at 25 °C. Subsequently, enzymatic reactions were terminated by the addition of 0.3% SDS, and the product SAH was quantified by the split aptamer MST assay (Figs. 5A, B, 6A).
# For MTase assay detection by MST, enzyme reaction mixtures with a total volume of 10 µL per single treatment condition were prepared and incubated for the desired reaction times. Inhibitors were added from corresponding DMSO stocks to a final DMSO concentration of max. 5%. Afterward, reactions were quenched at a given reaction time by the addition of 1 µL sodium dodecyl sulfate (SDS, solution, 3% in water) per 10 µL reaction mixture and mixed well by pipetting. Subsequently, 1 µL of a 10× aptamer-containing detection master mix (200 mM Tris, pH 8.5, 200 mM MgCl2, 3 M NaCl, 10 mM urea, 0.2% Brij, 500 nM aptaSAH1, 500 nM aptaSAH2) was added to the quenched MTase reaction and incubated for 1 h at room temperature. Reaction mixtures were loaded directly to MST capillaries without further purification or sample processing.
# MST experiments were carried out in at least technical triplicates using a Monolith NT.115 instrument (NanoTemper Technologies) using Monolith standard capillaries and the blue excitation laser setup. The instrument was calibrated according to the manufacturer’s instructions. General settings were applied for all MST experiments as follows: manual temperature control: 25 °C, fluorescence measurement before MST: 4 s, MST (IR laser) on: 20 s, fluorescence after MST: 2 s, delay: 25 s. The laser power was adjusted to optimize the signal-to-noise ratio and the fluorescence signal. LED and MST power settings were chosen individually for each sample by adjusting the LED power to yield fluorescence signals of at least 300 units (blue laser) or 3000 units (red laser) and the MST power to achieve an appropriate thermophoretic response (standard setting: medium MST power).
# [2] = target: T2, S. aureus TrmD (Staphylococcus aureus, UniProt Q2FZ43); test: S. aureus TrmD enzymatic split aptamer MST assay; assay type: biochemical; conditions: 500 µM of hit compound, Fig. 5D
# T2 construct: made in house
# T2 sequence (Q2FZ43 1-245): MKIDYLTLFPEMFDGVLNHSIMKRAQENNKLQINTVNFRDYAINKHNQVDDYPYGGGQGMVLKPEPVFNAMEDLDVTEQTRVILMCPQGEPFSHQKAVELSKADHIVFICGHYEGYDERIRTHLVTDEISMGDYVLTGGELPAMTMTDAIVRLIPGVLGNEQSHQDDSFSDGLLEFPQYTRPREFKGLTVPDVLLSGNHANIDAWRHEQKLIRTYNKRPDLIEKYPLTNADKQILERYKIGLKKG
# Procedure: DNMT2 & S. aureus TrmD: 100 mM Tris-HCl, pH 8, 100 mM NH4OAc, 0.1 mM EDTA, 10 mM MgCl2, 10 mM DTT. For TrmD: 50 nM TrmD, 2 µM SAM, 1 µM tRNA^Leu.
# For MTase assay detection by MST, enzyme reaction mixtures with a total volume of 10 µL per single treatment condition were prepared and incubated for the desired reaction times. Inhibitors were added from corresponding DMSO stocks to a final DMSO concentration of max. 5%. Afterward, reactions were quenched at a given reaction time by the addition of 1 µL sodium dodecyl sulfate (SDS, solution, 3% in water) per 10 µL reaction mixture and mixed well by pipetting. Subsequently, 1 µL of a 10× aptamer-containing detection master mix (200 mM Tris, pH 8.5, 200 mM MgCl2, 3 M NaCl, 10 mM urea, 0.2% Brij, 500 nM aptaSAH1, 500 nM aptaSAH2) was added to the quenched MTase reaction and incubated for 1 h at room temperature. […]
# [3] = target: T3, DNMT2-tRNA complex (Homo sapiens, UniProt O14717); test: Electrophoretic mobility shift assay (EMSA) of the DNMT2-tRNA complex; assay type: binding; conditions: 500 µM compound, DNMT2 10 µM, tRNAAsp 5 µM
# T3 construct: made in house
# T3 sequence (O14717 1-391): T1 sequence (O14717 1-391)
# Procedure: We speculated these hits might bind very weakly to the tRNA-DNMT2 interaction site and by this inhibit DNMT2 activity. To test this hypothesis, we performed an electrophoretic mobility shift assay (EMSA) using tRNA^Asp (5 µM) and DNMT2 (10 µM) compared to the tRNA sample in absence of the DNMT2 protein (SI Fig. 4)[33]. […] Subsequently, we treated the DNMT2-tRNA complex with all hit compounds at 500 µM and observed their potential to disrupt the complex.
# DNMT2 (10 µM) was mixed with tRNA^Asp (5 µM) and treated with 500 µM of the respective screening hit compound in DNMT2 assay buffer (100 mM Tris-HCl, pH 8, 100 mM NH4OAc, 0.1 mM EDTA, 10 mM MgCl2, 10 mM DTT). Subsequently, reaction samples (each 5 µL) were loaded to a native 10% polyacrylamide gel and separated electrophoretically (1 h, 180 V) in 1x TBE. RNA was stained in situ with 1x GelRed and PAGE analysis was conducted by fluorescence scanning at an excitation wavelength of 532 nm (Amersham Typhoon 9400). Positive control: DNMT2+tRNA (band at high molecular weights); negative control: only tRNA (band at low molecular weights).
# SI Figure 4. Electrophore?c mobility shi? assay (EMSA) to inves?gate the inﬂuence of screening hits on the DNMT2-tRNA complex forma?on. D NMT2 (10 µ M ) was mixe d w it h t RNAAsp (5 µM) and treated with 50 0 µM of the respec?ve screening hit compound in DNMT2 assay buﬀer. All reac?on samples (each 5 µL) were loaded to a na?ve 10% polyacr ylamide gel and separated electrophore?cally (1 h, 1 80 V) in 1x TBE. RNA was stained in situ with 1x GelRed and PAGE analysis was conducted by ﬂuorescence scanning at an excita?on wavelength of 532 nm (Amersham Typhoon 9400). Po s i ? ve control: DNMT2+tRNA (band at high molecular weights); nega?ve control: only tRNA (band at low
# [4] = target: T4, NSUN2 (Homo sapiens, UniProt Q08J23); test: NSUN2 enzymatic split aptamer MST assay (selectivity panel); assay type: biochemical; conditions: 500 µM of hit compound, Fig. 5D
# T4 construct: made in house
# T4 sequence (Q08J23 whole entry, species assumed): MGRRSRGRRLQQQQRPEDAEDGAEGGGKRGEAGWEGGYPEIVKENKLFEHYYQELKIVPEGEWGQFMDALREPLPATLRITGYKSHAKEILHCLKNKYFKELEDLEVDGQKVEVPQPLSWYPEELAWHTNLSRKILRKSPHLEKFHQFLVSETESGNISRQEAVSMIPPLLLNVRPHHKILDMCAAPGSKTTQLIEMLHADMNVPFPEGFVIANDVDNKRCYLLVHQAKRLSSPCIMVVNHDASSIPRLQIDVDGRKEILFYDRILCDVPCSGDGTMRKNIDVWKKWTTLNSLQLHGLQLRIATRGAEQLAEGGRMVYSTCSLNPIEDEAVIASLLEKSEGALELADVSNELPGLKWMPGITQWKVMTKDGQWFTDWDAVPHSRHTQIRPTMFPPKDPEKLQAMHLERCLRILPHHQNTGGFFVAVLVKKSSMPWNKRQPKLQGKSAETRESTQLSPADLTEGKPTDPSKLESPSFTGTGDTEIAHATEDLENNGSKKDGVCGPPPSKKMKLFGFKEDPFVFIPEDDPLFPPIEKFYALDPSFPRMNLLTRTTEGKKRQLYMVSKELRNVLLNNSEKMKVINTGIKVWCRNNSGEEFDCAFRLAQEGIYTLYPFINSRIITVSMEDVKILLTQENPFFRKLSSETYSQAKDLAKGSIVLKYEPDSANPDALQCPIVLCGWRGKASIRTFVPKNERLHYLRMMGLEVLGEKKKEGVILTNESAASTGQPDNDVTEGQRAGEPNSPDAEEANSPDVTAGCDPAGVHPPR
# From the text: Next, we investigated the target selectivity of all hit compounds by inhibition experiments using the MTases characterized in this study (DNMT2, METTL3/14, TrmD, and NSUN2) as a selectivity panel. […] While Cpd3 (alexidine) could be identified as a DNMT2 inhibitor during MST- and FP- experiments, the ligand’s hydrophobic nature raised the concern this compound might be an aggregator of DNMT2. To exclude this possibility, we investigated the reversibility of alexidine binding using the FP displacement assay and separation of the alexidine ligand by small-scale size-exclusion chromatography (SEC)[34].
# NSUN2: 50 mM Tris-HCl, pH 7.5, 5 mM EDTA, 5 mM MgCl2, 1.5 mM DTT. 200 nM NSUN2, 1 µM SAM, 250 ng/µL tRNA (total from E. coli). […]
# MST experiments were carried out in at least technical triplicates using a Monolith NT.115 instrument (NanoTemper Technologies) using Monolith standard capillaries and the blue excitation laser setup. […] General settings were applied for all MST experiments as follows: manual temperature control: 25 °C, fluorescence measurement before MST: 4 s, MST (IR laser) on: 20 s, fluorescence after MST: 2 s, delay: 25 s. The laser power was adjusted to optimize the signal-to-noise ratio and the fluorescence signal. […] MST measurements were analyzed using the NT analysis software (version 1.5.41) and exported for statistical analysis and plotting in GraphPad Prism 7.01.
compound,measurement,setting,value
"C=CC(=O)NC(=O)NC12CC3CC(CC(C3)C1)C2 [Cpd 11, 1-(adamantan-1-yl)-3-(prop-2-enoyl)urea]",inhibition at 100 µM,"[1]; 100 µM compound, covalent library, 30 min at 25 °C, read-out: DNMT2 inhibition in primary screening",> 90%
same,IC50,"[1]; MST-derived, 250 nM DNMT2, 5 µM tRNA, 0.9 µM SAM",4.1 µM
same,inhibition of TrmD (selectivity panel),[2],did not inhibit
same,influence on DNMT2-tRNA complex formation,[3],do not inﬂuence the complex
same,inhibition of NSUN2 (selectivity panel),[4],did not inhibit
